Experiments:
[1] = system: Tyrosine-protein kinase ABL1 (Homo sapiens), P00519 [H396P]; settings: Compound concentration 100.0 nM
[2] = molecular target: Mitogen-activated protein kinase kinase kinase 20 (Homo sapiens) (UniProt Q9NYL2); settings: Compound concentration 100.0 nM
[3] = molecular target: Non-receptor tyrosine-protein kinase TYK2 (Homo sapiens) (UniProt P29597); settings: Compound concentration 100.0 nM
[4] = molecular target: Myosin-IIIa (Homo sapiens) (UniProt Q8NEV4); settings: Compound concentration 100.0 nM
[5] = molecular target: Serine/threonine-protein kinase PLK3 (Homo sapiens) (UniProt Q9H4B4); settings: Compound concentration 100.0 nM
[6] = molecular target: Phosphatidylinositol 4-kinase beta (Homo sapiens) (UniProt Q9UBF8); settings: Compound concentration 100.0 nM
[7] = molecular target: Ephrin type-B receptor 2 (Homo sapiens) (UniProt P29323); settings: Compound concentration 100.0 nM
[8] = molecular target: Calcium/calmodulin-dependent protein kinase type 1D (Homo sapiens) (UniProt Q8IU85); settings: Compound concentration 100.0 nM
[9] = molecular target: Megakaryocyte-associated tyrosine-protein kinase (Homo sapiens) (UniProt P42679); settings: Compound concentration 100.0 nM
[10] = molecular target: Serine/threonine-protein kinase STK11 (Homo sapiens) (UniProt Q15831); settings: Compound concentration 100.0 nM
[11] = molecular target: Cyclin-G-associated kinase (Homo sapiens) (UniProt O14976); settings: Compound concentration 100.0 nM
[12] = molecular target: T1, Alpha-2C adrenergic receptor (Homo sapiens) (UniProt P18825); settings: Compound concentration 10.0 uM
T1 sequence (whole entry): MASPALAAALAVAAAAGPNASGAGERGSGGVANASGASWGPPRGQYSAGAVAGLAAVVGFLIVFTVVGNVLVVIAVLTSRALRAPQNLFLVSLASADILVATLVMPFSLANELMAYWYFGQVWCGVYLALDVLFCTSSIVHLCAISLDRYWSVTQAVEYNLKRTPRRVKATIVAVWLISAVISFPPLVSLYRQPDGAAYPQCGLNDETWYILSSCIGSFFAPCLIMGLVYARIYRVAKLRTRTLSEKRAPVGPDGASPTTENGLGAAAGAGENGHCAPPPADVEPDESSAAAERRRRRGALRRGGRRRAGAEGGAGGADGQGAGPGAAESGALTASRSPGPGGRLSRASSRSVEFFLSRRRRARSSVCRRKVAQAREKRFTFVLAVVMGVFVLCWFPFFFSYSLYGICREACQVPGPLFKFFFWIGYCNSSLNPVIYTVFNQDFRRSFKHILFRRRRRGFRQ

[13] = molecular target: Cyclin-dependent kinase 2 (Homo sapiens) (UniProt P24941); settings: Compound concentration 100.0 nM
[14] = molecular target: MAP/microtubule affinity-regulating kinase 4 (Homo sapiens) (UniProt Q96L34); settings: Compound concentration 100.0 nM
[15] = molecular target: Ephrin type-A receptor 5 (Homo sapiens) (UniProt P54756); settings: Compound concentration 100.0 nM
[16] = system: Epidermal growth factor receptor (Homo sapiens), P00533 [UNDEFINED MUTATION]; settings: Compound concentration 100.0 nM
[17] = molecular target: Dual specificity mitogen-activated protein kinase kinase 3 (Homo sapiens) (UniProt P46734); settings: Compound concentration 100.0 nM
[18] = molecular target: Cyclin-dependent kinase 11B (Homo sapiens) (UniProt P21127); settings: Compound concentration 100.0 nM
[19] = molecular target: Aurora kinase A (Homo sapiens) (UniProt O14965); settings: Compound concentration 100.0 nM
[20] = molecular target: Mitogen-activated protein kinase kinase kinase 15 (Homo sapiens) (UniProt Q6ZN16); settings: Compound concentration 100.0 nM
[21] = molecular target: Interleukin-1 receptor-associated kinase 3 (Homo sapiens) (UniProt Q9Y616); settings: Compound concentration 100.0 nM
[22] = molecular target: Myosin light chain kinase (Homo sapiens) (UniProt Q32MK0); settings: Compound concentration 100.0 nM
[23] = molecular target: Cyclin-dependent kinase 4 (Homo sapiens) (UniProt P11802); settings: Compound concentration 100.0 nM
[24] = molecular target: Serine/threonine-protein kinase TAO3 (Homo sapiens) (UniProt Q9H2K8); settings: Compound concentration 100.0 nM
[25] = molecular target: Dual specificity tyrosine-phosphorylation-regulated kinase 2 (Homo sapiens) (UniProt Q92630); settings: Compound concentration 100.0 nM
[26] = molecular target: Dual specificity calcium/calmodulin-dependent 3',5'-cyclic nucleotide phosphodiesterase 1A (Homo sapiens, UniProt P54750); assay: Biochemical assay (PDE1A)
[27] = molecular target: Platelet-derived growth factor receptor alpha (Homo sapiens) (UniProt P16234); settings: Compound concentration 100.0 nM
[28] = molecular target: cGMP-specific 3',5'-cyclic phosphodiesterase (Homo sapiens, UniProt O76074); assay: Biochemical assay (PDE5A)
[29] = system: Fibroblast growth factor receptor 3 (Homo sapiens), P22607 [G697C]; settings: Compound concentration 100.0 nM
[30] = molecular target: Mitogen-activated protein kinase kinase kinase 7 (Homo sapiens) (UniProt O43318); settings: Compound concentration 100.0 nM
[31] = molecular target: Casein kinase I isoform delta (Homo sapiens) (UniProt P48730); settings: Compound concentration 100.0 nM
[32] = molecular target: Serine/threonine-protein kinase PLK4 (Homo sapiens) (UniProt O00444); settings: Compound concentration 100.0 nM
[33] = molecular target: Casein kinase I isoform alpha-like (Homo sapiens) (UniProt Q8N752); settings: Compound concentration 100.0 nM
[34] = molecular target: Calcium/calmodulin-dependent protein kinase type 1 (Homo sapiens) (UniProt Q14012); settings: Compound concentration 100.0 nM
[35] = molecular target: Sigma intracellular receptor 2 (Homo sapiens, UniProt Q5BJF2); settings: Compound concentration 10.0 uM
[36] = molecular target: Calcium/calmodulin-dependent protein kinase type II subunit gamma (Homo sapiens) (UniProt Q13555); settings: Compound concentration 100.0 nM
[37] = molecular target: Ephrin type-A receptor 7 (Homo sapiens) (UniProt Q15375); settings: Compound concentration 100.0 nM
[38] = molecular target: Cyclin-dependent kinase 9 (Homo sapiens) (UniProt P50750); settings: Compound concentration 100.0 nM
[39] = molecular target: Myosin light chain kinase 2, skeletal/cardiac muscle (Homo sapiens) (UniProt Q9H1R3); settings: Compound concentration 100.0 nM

Chain of Casein kinase I isoform alpha-like (Homo sapiens) (Q8N752 whole entry, canonical isoform): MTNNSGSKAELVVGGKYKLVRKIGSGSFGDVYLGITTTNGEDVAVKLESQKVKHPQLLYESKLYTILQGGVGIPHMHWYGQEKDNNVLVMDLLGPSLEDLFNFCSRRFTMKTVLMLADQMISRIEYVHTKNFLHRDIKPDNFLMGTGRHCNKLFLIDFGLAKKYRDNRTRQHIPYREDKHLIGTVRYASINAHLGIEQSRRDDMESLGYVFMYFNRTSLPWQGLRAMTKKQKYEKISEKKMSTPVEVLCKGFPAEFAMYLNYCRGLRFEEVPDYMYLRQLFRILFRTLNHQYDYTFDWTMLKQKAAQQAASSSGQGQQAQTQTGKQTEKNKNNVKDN
Chain of Phosphatidylinositol 4-kinase beta (Homo sapiens) (Q9UBF8 2-816 limits assumed): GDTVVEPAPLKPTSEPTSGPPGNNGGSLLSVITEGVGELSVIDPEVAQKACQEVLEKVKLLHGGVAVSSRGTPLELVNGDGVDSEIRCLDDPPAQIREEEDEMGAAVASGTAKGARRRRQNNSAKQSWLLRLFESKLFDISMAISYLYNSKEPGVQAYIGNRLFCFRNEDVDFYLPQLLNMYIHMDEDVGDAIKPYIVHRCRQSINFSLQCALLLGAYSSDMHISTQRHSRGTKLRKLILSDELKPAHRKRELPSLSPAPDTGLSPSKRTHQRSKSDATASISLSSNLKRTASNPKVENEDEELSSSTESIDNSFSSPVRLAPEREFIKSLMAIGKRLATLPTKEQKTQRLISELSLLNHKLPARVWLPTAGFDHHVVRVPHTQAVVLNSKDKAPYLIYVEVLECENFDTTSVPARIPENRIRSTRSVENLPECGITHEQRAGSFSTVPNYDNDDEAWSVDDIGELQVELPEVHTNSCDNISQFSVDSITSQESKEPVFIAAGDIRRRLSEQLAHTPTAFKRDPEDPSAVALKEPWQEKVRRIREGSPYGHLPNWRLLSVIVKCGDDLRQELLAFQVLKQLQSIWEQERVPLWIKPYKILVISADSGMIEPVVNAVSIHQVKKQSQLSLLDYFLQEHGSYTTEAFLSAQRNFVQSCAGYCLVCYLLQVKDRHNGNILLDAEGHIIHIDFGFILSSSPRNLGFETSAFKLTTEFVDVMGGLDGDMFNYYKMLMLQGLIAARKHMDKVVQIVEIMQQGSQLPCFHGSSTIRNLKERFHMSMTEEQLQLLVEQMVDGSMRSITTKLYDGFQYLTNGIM
Chain of Ephrin type-A receptor 7 (Homo sapiens) (Q15375 28-998 limits assumed): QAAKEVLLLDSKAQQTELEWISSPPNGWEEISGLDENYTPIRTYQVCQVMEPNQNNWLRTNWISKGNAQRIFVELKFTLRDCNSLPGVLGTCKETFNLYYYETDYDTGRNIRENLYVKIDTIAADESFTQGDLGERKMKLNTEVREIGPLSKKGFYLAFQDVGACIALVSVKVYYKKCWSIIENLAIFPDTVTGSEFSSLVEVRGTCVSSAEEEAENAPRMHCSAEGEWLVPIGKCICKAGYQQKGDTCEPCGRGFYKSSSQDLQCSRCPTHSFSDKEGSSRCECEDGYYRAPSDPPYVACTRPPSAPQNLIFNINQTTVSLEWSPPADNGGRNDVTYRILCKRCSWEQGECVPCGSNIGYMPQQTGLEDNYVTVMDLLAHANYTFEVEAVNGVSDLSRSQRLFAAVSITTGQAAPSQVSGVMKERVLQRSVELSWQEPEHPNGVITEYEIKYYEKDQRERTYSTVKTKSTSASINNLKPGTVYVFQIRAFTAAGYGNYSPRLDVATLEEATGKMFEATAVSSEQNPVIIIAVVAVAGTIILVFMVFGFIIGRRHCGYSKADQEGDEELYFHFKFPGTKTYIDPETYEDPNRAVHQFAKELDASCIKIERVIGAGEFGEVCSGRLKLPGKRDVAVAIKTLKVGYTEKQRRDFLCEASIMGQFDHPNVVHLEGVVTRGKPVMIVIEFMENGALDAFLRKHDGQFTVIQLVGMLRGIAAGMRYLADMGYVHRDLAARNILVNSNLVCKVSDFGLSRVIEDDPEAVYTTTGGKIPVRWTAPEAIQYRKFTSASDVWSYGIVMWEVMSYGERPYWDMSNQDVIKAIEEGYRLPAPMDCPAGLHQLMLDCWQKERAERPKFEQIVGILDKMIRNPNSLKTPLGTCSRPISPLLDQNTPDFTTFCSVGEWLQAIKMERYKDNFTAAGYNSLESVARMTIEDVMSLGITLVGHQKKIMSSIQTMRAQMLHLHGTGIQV
Chain of MAP/microtubule affinity-regulating kinase 4 (Homo sapiens) (Q96L34 whole entry): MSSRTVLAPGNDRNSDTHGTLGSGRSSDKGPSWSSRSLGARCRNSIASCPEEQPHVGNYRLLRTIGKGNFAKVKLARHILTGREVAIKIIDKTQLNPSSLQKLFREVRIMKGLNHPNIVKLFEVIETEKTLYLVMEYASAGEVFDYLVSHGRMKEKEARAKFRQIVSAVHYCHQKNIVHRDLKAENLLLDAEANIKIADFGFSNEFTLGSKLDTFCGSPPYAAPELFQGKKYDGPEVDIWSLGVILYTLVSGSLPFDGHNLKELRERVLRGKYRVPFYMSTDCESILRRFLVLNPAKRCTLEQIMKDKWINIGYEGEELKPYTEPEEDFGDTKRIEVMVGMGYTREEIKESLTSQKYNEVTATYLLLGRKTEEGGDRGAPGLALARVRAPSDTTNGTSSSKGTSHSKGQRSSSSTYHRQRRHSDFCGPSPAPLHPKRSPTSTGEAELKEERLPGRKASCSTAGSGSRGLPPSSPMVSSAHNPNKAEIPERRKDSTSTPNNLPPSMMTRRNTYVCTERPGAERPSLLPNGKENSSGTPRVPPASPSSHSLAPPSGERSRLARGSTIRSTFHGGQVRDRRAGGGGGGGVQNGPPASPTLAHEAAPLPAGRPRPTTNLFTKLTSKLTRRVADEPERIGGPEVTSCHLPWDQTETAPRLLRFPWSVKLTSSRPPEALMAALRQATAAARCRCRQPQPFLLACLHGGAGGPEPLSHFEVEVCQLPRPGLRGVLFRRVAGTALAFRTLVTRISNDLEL
Chain of Cyclin-G-associated kinase (Homo sapiens) (O14976 whole entry): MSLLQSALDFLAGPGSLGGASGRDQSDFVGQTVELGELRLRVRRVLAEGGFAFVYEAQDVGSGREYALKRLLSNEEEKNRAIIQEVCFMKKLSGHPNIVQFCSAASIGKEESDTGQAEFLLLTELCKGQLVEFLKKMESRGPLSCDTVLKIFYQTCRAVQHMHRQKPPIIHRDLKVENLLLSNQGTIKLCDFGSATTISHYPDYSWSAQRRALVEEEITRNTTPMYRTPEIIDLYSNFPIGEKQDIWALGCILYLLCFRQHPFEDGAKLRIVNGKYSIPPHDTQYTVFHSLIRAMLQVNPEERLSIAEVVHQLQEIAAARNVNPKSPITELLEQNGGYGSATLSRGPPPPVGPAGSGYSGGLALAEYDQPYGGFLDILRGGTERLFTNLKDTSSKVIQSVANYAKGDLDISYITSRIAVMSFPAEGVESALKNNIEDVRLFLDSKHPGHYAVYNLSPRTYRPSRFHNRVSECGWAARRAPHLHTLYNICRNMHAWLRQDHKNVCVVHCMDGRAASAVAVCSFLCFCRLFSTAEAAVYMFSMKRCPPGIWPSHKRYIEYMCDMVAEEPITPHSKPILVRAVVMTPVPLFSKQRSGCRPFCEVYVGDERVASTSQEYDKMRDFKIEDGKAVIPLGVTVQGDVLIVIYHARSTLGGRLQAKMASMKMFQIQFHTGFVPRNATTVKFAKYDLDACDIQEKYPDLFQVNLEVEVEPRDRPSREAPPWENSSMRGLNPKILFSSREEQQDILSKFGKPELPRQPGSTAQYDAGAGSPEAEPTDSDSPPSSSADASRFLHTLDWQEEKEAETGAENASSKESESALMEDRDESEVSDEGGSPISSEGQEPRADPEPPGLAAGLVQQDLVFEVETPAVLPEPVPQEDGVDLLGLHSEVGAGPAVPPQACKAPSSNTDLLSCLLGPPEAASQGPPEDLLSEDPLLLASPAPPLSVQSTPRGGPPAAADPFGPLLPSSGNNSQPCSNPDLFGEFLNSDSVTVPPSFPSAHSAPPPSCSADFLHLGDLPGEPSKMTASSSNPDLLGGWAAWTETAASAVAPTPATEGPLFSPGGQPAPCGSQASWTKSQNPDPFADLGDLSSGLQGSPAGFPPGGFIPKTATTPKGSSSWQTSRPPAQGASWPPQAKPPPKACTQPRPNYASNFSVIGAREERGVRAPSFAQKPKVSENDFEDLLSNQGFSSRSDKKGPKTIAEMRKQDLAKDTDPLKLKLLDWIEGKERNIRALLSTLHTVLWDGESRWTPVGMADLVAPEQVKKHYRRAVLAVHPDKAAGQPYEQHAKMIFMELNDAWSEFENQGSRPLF
Chain of Dual specificity mitogen-activated protein kinase kinase 3 (Homo sapiens) (P46734 whole entry): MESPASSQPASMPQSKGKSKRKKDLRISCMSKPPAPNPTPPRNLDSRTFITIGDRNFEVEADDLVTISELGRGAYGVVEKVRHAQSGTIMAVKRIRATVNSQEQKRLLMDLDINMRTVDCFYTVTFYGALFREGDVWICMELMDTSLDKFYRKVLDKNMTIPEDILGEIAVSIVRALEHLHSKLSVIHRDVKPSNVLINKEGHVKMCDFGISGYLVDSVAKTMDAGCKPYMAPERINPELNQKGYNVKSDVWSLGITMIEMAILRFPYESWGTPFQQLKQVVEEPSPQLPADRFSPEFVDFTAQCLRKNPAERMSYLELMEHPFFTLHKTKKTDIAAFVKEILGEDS
Chain of Serine/threonine-protein kinase STK11 (Homo sapiens) (Q15831 whole entry): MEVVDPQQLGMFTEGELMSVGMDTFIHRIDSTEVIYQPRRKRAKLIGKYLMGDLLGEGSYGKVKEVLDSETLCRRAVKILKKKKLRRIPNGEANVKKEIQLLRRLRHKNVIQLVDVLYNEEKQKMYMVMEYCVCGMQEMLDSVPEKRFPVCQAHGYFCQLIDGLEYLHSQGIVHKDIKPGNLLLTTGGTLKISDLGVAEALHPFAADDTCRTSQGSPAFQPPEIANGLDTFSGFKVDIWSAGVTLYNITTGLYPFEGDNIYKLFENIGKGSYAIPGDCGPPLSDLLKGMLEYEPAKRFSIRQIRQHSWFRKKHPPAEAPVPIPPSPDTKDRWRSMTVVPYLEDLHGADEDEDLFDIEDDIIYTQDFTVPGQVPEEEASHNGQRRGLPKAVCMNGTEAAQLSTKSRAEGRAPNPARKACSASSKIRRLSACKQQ

Structure (SMILES): COCCOc1nc(-c2ccc(Cl)nc2)nc2c1CN(C(=O)c1ncn3ccccc13)CC2 [THPP-1]
- residual activity [1]: 100%
- residual activity [2]: 100%
- residual activity [3]: 100%
- residual activity [4]: 100%
- residual activity [5]: 100%
- residual activity [6]: 100%
- residual activity [7]: 79%
- residual activity [8]: 100%
- residual activity [9]: 100%
- residual activity [10]: 100%
- residual activity [11]: 100%
- inhibition [12]: 1.3%
- residual activity [13]: 82%
- residual activity [14]: 100%
- residual activity [15]: 99%
- residual activity [16]: 85%
- residual activity [17]: 93%
- residual activity [18]: 100%
- residual activity [19]: 81%
- residual activity [20]: 100%
- residual activity [21]: 100%
- residual activity [22]: 83%
- residual activity [23]: 96%
- residual activity [24]: 100%
- residual activity [25]: 100%
- Ki [26]: > 50 µM (not active)
- residual activity [27]: 100%
- Ki [28]: 0.116 µM
- residual activity [29]: 100%
- residual activity [30]: 93%
- residual activity [31]: 84%
- residual activity [32]: 85%
- residual activity [33]: 100%
- residual activity [34]: 100%
- inhibition [35]: 55.6%
- residual activity [36]: 100%
- residual activity [37]: 100%
- residual activity [38]: 100%
- residual activity [39]: 94%

Structure (SMILES): CC(C)CC(=O)N1CCc2nc(-c3ccc(Br)cc3)nc(N(C)Cc3ccccc3)c2C1 [THPP-1-NC]
- residual activity [1]: 100%
- residual activity [2]: 100%
- residual activity [3]: 100%
- residual activity [4]: 96%
- residual activity [5]: 100%
- residual activity [6]: 100%
- residual activity [7]: 80%
- residual activity [8]: 100%
- residual activity [9]: 100%
- residual activity [10]: 100%
- residual activity [11]: 100%
- inhibition [12]: 48%
- residual activity [13]: 80%
- residual activity [14]: 100%
- residual activity [15]: 89%
- residual activity [16]: 100%
- residual activity [17]: 100%
- residual activity [18]: 100%
- residual activity [19]: 72%
- residual activity [20]: 100%
- residual activity [21]: 100%
- residual activity [22]: 98%
- residual activity [23]: 85%
- residual activity [24]: 100%
- residual activity [25]: 84%
- Ki [26]: > 58.3 µM (not active)
- residual activity [27]: 98%
- Ki [28]: 6.89 µM (not active)
- residual activity [29]: 100%
- residual activity [30]: 78%
- residual activity [31]: 83%
- residual activity [32]: 70%
- residual activity [33]: 100%
- residual activity [34]: 100%
- inhibition [35]: 78.8%
- residual activity [36]: 100%
- residual activity [37]: 99%
- residual activity [38]: 100%
- residual activity [39]: 96%

— ChEMBL document CHEMBL4507293 (2021)
